For 13 molecules, DC50 and Dmax results are on record in patent US12180193B2, “Accelerating fibrosarcoma protein degrading compounds and associated methods of use” (Arvinas Operations, Inc., priority 2020, dated 2024).

In one experiment the target is T1, BRAF V600E (Homo sapiens, UniProt P15056, V600E).
T1 construct: expressed in transfected cells
Kind of experiment: Cellular assay of target protein degradation, T-Rex 293 cells stably transfected with HA-BRAF_V600E (HA immunofluorescence, high content imaging). Type of experiment: cell-based. Particulars: T-Rex 293 HA-BRAF V600E; for DC50: half maximal degradation, read-out: BRaf V600E DC50; for Dmax: maximum degradation observed. Put shortly:
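Read-out is anti-HA immunofluorescence quantified by high-content imaging, giving half-maximal degradation concentration (DC50) and maximum degradation (Dmax, percent of control). Cells expressed the construct under 1 ng/mL doxycycline and received compound (1 μM to 0.1 nM final, 0.1% DMSO) for 24 h at 37 °C.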

A further experiment deals with T2, BRAF G466V (Homo sapiens, UniProt P15056, G466V).
T2 construct: expressed in transfected cells
As to the kind of experiment: Cellular assay of target protein degradation, T-Rex 293 cells stably transfected with HA-BRAF G466V (HA immunofluorescence, high content imaging). In kind it is cell-based. Particulars: T-Rex 293 HA-BRAF G466V; for DC50: half maximal degradation, read-out: BRaf G466V DC50; for Dmax: maximum degradation observed. Put shortly:
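First, stably transfected T-Rex 293 cells were plated with 0.75 ng/mL doxycycline and grown for 24 hours. Next, compound (final 30 nM to 3 pM, 0.1% DMSO) was added for another 24 hours at 37° C. Finally, cells were fixed, stained for HA and imaged.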

Structures are written as SMILES. Where only a bound is given, the exact number is not on record here.

T2 sequence (P15056 whole entry G466V): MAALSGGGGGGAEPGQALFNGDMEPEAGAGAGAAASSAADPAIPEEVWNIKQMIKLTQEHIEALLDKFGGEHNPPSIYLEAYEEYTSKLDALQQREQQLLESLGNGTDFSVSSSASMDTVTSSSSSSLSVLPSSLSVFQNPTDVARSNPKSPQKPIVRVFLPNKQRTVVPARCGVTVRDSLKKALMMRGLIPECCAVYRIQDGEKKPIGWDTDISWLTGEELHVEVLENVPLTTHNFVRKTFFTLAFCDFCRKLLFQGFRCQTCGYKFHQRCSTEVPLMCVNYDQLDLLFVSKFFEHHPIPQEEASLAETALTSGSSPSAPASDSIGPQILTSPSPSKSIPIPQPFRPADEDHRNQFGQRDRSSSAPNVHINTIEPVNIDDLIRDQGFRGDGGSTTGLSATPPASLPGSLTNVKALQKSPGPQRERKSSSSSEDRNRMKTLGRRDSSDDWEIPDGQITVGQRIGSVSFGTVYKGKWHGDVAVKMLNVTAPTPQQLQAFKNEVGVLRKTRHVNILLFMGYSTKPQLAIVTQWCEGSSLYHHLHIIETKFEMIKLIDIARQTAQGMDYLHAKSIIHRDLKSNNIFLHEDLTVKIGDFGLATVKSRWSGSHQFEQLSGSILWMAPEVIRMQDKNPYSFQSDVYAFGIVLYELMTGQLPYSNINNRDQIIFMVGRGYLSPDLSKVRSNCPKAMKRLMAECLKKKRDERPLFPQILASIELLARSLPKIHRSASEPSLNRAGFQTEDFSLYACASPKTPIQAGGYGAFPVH
T1 sequence (P15056 whole entry V600E): as the sequence (P15056 whole entry G466V) above, with V466G, V600E counted along it

Consider `COc1cc([C@H](O)CCN2CCN(c3ccc(-c4cnc5[nH]cc(C(=O)c6c(F)ccc(NS(=O)(=O)N7CC[C@@H](F)C7)c6F)c5c4)cc3)CC2)cc2c1C(=O)N([C@@H]1CCC(=O)NC1=O)C2` [Compound 187, (3R)-N-{3-[5-(4-{4-[(3R)-3-{2-[(3R)-2,6-dioxopiperidin-3-yl]-7-methoxy-1-oxo-2,3-dihydro-1H-isoindol-5-yl}-3-hydroxypropyl]piperazin-1-yl}phenyl)-1H-pyrrolo[2,3-b]pyridine-3-carbonyl]-2,4-difluorophenyl}-3-fluoropyrrolidine-1-sulfonamide], for which the figures for the DC50 at BRAF V600E and at BRAF G466V were 50 to 500 nM and 1 to 10 nM, respectively. Moreover, the Dmax at BRAF V600E was 35 to 70%; on BRAF G466V, > 70%.
The corresponding values for `O=C1CCC(N2Cc3cc(C4CCN(C[C@H]5C[C@H]6CC[C@@H](C5)N6c5ccc(-c6cnc7[nH]cc(C(=O)c8c(F)ccc(NS(=O)(=O)N9CC[C@@H](F)C9)c8F)c7c6)cc5)CC4)ccc3C2=O)C(=O)N1` (stereo partly drawn) [Compound 188, (3R)-N-[3-(5-{4-[(1R,3R,5S)-3-({4-[2-(2,6-dioxopiperidin-3-yl)-1-oxo-2,3-dihydro-1H-isoindol-5-yl]piperidin-1-yl}methyl)-8-azabicyclo[3.2.1]octan-8-yl]phenyl}-1H-pyrrolo[2,3-b]pyridine-3-carbonyl)-2,4-difluorophenyl]-3-fluoropyrrolidine-1-sulfonamide] are 5 to 50 nM, 1 to 10 nM, 35 to 70% and > 70%.
The corresponding values for `O=C1CCC(c2ccc(C3CCN(CC4CCN(c5ccc(-c6cnc7[nH]cc(C(=O)c8c(F)ccc(NS(=O)(=O)N9CC[C@@H](F)C9)c8F)c7c6)cc5)CC4)CC3)cc2)C(=O)N1` (stereo partly drawn) [Compound 189, (3R)-N-[3-(5-{4-[4-({4-[4-(2,6-dioxopiperidin-3-yl)phenyl]piperidin-1-yl}methyl)piperidin-1-yl]phenyl}-1H-pyrrolo[2,3-b]pyridine-3-carbonyl)-2,4-difluorophenyl]-3-fluoropyrrolidine-1-sulfonamide] are 5 to 50 nM, < 1 nM, 35 to 70% and 35 to 70%.
The corresponding values for `O=C1CCC(N2Cc3cc(C4CCN(CC5CCN(c6ccc(-c7cnc8[nH]cc(C(=O)c9c(F)ccc(NS(=O)(=O)N%10CCC(F)(F)C%10)c9F)c8c7)cc6)CC5)CC4)ccc3C2=O)C(=O)N1` (stereo not shown) [Compound 190, N-[3-(5-{4-[4-({4-[2-(2,6-dioxopiperidin-3-yl)-1-oxo-2,3-dihydro-1H-isoindol-5-yl]piperidin-1-yl}methyl)piperidin-1-yl]phenyl}-1H-pyrrolo[2,3-b]pyridine-3-carbonyl)-2,4-difluorophenyl]-3,3-difluoropyrrolidine-1-sulfonamide] are < 5 nM, 1 to 10 nM, 35 to 70% and > 70%.
As for `CCN(C)S(=O)(=O)Nc1ccc(F)c(C(=O)c2c[nH]c3ncc(-c4ccc(N5CCC(CN6CCC(c7ccc8c(c7)CN(C7CCC(=O)NC7=O)C8=O)CC6)CC5)cc4)cc23)c1F` (stereo not shown) [Compound 191, 3-(5-{1-[(1-{4-[3-(3-{[ethyl(methyl)sulfamoyl]amino}-2,6-difluorobenzoyl)-1H-pyrrolo[2,3-b]pyridin-5-yl]phenyl}piperidin-4-yl)methyl]piperidin-4-yl}-1-oxo-2,3-dihydro-1H-isoindol-2-yl)piperidine-2,6-dione], on BRAF V600E, the DC50 was in the range of 5 to 50 nM and the Dmax is 35 to 70%. At BRAF G466V, the DC50 was < 1 nM and the Dmax was > 70%.
The corresponding values for `O=C1CCC(N2Cc3cc(N4CC(CN5CCN(Cc6ccc(-c7cnc8[nH]cc(C(=O)c9c(F)ccc(NS(=O)(=O)N%10CC[C@@H](F)C%10)c9F)c8c7)cc6)CC5)C4)ccc3C2=O)C(=O)N1` (stereo partly drawn) [Compound 192, (3R)-N-{3-[5-(4-{[4-({1-[2-(2,6-dioxopiperidin-3-yl)-1-oxo-2,3-dihydro-1H-isoindol-5-yl]azetidin-3-yl}methyl)piperazin-1-yl]methyl}phenyl)-1H-pyrrolo[2,3-b]pyridine-3-carbonyl]-2,4-difluorophenyl}-3-fluoropyrrolidine-1-sulfonamide] are 5 to 50 nM, 35 to 70%, 1 to 10 nM and > 70%.
The corresponding values for `O=C1CCC(N2Cc3cc(N4CC(CN5CCN(Cc6ncc(-c7cnc8[nH]cc(C(=O)c9c(F)ccc(NS(=O)(=O)N%10CC[C@@H](F)C%10)c9F)c8c7)cn6)CC5)C4)ccc3C2=O)C(=O)N1` (stereo partly drawn) [Compound 193, (3R)-N-{3-[5-(2-{[4-({1-[2-(2,6-dioxopiperidin-3-yl)-1-oxo-2,3-dihydro-1H-isoindol-5-yl]azetidin-3-yl}methyl)piperazin-1-yl]methyl}pyrimidin-5-yl)-1H-pyrrolo[2,3-b]pyridine-3-carbonyl]-2,4-difluorophenyl}-3-fluoropyrrolidine-1-sulfonamide] are 50 to 500 nM, 35 to 70%, 1 to 10 nM and 35 to 70%.
The corresponding values for `O=C1CCC(N2Cc3cc(N4CC(CN5CCC(Cc6ncc(-c7cnc8[nH]cc(C(=O)c9c(F)ccc(NS(=O)(=O)N%10CC[C@@H](F)C%10)c9F)c8c7)cn6)CC5)C4)ccc3C2=O)C(=O)N1` (stereo partly drawn) [Compound 194, (3R)-N-{3-[5-(2-{[1-({1-[2-(2,6-dioxopiperidin-3-yl)-1-oxo-2,3-dihydro-1H-isoindol-5-yl]azetidin-3-yl}methyl)piperidin-4-yl]methyl}pyrimidin-5-yl)-1H-pyrrolo[2,3-b]pyridine-3-carbonyl]-2,4-difluorophenyl}-3-fluoropyrrolidine-1-sulfonamide] are 50 to 500 nM, 35 to 70%, 1 to 10 nM and > 70%.
For `CN(CCN1CCN(c2ccc(-c3cnc4[nH]cc(C(=O)c5c(F)ccc(NS(=O)(=O)N6CC[C@@H](F)C6)c5F)c4c3)cc2)CC1)[C@H]1CC[C@H](Oc2ccc3c(c2)CN(C2CCC(=O)NC2=O)C3=O)CC1` (stereo partly drawn) [Compound 195, (3R)-N-[2,4-difluoro-3-(5-{4-[4-(2-{methyl[(1r,4r)-4-{[2-(2,6-dioxopiperidin-3-yl)-1-oxo-2,3-dihydro-1H-isoindol-5-yl]oxy}cyclohexyl]amino}ethyl)piperazin-1-yl]phenyl}-1H-pyrrolo[2,3-b]pyridine-3-carbonyl)phenyl]-3-fluoropyrrolidine-1-sulfonamide], on BRAF V600E, the DC50 is 5 to 50 nM and the Dmax lay within 35 to 70%. Also, on BRAF G466V, the DC50 is 1 to 10 nM and the maximal degradation (Dmax) is 35 to 70%.
Regarding `O=C1CC[C@H](NC(=O)c2cc(C3CCN(CC4CCN(c5ccc(-c6cnc7[nH]cc(C(=O)c8c(F)ccc(NS(=O)(=O)N9CC[C@@H](F)C9)c8F)c7c6)cc5)CC4)CC3)ccc2F)C(=O)N1` [Compound 196, 5-(1-{[1-(4-{3-[2,6-difluoro-3-({[(3R)-3-fluoropyrrolidin-1-yl]sulfonyl}amino)benzoyl]-1H-pyrrolo[2,3-b]pyridin-5-yl}phenyl)piperidin-4-yl]methyl}piperidin-4-yl)-N-[(3S)-2,6-dioxopiperidin-3-yl]-2-fluorobenzamide], on BRAF V600E, the DC50 lay within 5 to 50 nM and the Dmax fell in the range of 35 to 70%. Moreover, on BRAF G466V, the DC50 is 1 to 10 nM and the Dmax fell in the range of 35 to 70%.
As to `O=C1CC[C@@H](NC(=O)c2cc(C3CCN(CC4CCN(c5ccc(-c6cnc7[nH]cc(C(=O)c8c(F)ccc(NS(=O)(=O)N9CC[C@@H](F)C9)c8F)c7c6)cc5)CC4)CC3)ccc2F)C(=O)N1` [Compound 197, 5-(1-{[1-(4-{3-[2,6-difluoro-3-({[(3R)-3-fluoropyrrolidin-1-yl]sulfonyl}amino)benzoyl]-1H-pyrrolo[2,3-b]pyridin-5-yl}phenyl)piperidin-4-yl]methyl}piperidin-4-yl)-N-[(3R)-2,6-dioxopiperidin-3-yl]-2-fluorobenzamide], on BRAF V600E, the DC50 lay within 5 to 50 nM and the Dmax was < 35%. At BRAF G466V, the DC50 lay within 1 to 10 nM and the Dmax is 35 to 70%.
The corresponding values for `O=C1CCC(N2Cc3cc(C4CCN(CC5CN(c6ccc(-c7cnc8[nH]cc(C(=O)c9c(F)ccc(NS(=O)(=O)N%10CC[C@@H](F)C%10)c9F)c8c7)cc6)C5)CC4)ccc3C2=O)C(=O)N1` (stereo partly drawn) [Compound 198, (3R)-N-[3-(5-{4-[3-({4-[2-(2,6-dioxopiperidin-3-yl)-1-oxo-2,3-dihydro-1H-isoindol-5-yl]piperidin-1-yl}methyl)azetidin-1-yl]phenyl}-1H-pyrrolo[2,3-b]pyridine-3-carbonyl)-2,4-difluorophenyl]-3-fluoropyrrolidine-1-sulfonamide] are 5 to 50 nM, < 35%, 1 to 10 nM and > 70%.
As for `O=C1CCN(c2ccc(C3CCN(CCC4CCN(c5ccc(-c6cnc7[nH]cc(C(=O)c8c(F)ccc(NS(=O)(=O)N9CC[C@@H](F)C9)c8F)c7c6)cc5)CC4)CC3)cc2F)C(=O)N1` [Compound 199, (3R)-N-[3-(5-[4-[4-(2-[4-[4-(2,4-dioxo-1,3-diazinan-1-yl)-3-fluorophenyl]piperidin-1-yl]ethyl)piperidin-1-yl]phenyl]-1H-pyrrolo[2,3-b]pyridine-3-carbonyl)-2,4-difluorophenyl]-3-fluoropyrrolidine-1-sulfonamide], at BRAF V600E, the DC50 was 5 to 50 nM and the Dmax lay within 35 to 70%. For the same molecule, at BRAF G466V, the DC50 was in the range of 1 to 10 nM and the Dmax lay within 35 to 70%.

Broadly, the DC50 is the concentration giving 50% degradation. In general, Dmax refers to the largest share of the target that was removed. Low values mean a partial loss of target, high ones a fuller loss of target.
